In US20100168231A1, “TARGET ENZYME FOR THE TREATMENT OF ACNE” (GALDERMA RESEARCH & DEVELOPMENT, priority 2007, published 2010):
Read-outs that look alike come from different tables or passages of the source.

Columns and labels:
[1] = biological target: T1, human DHRS9 (Homo sapiens, UniProt Q9BPW9); assay: Cellular model of oxidation of 3α-diol by DHRS9: inhibition of 3α-diol conversion to DHT, followed via AR transactivation (luciferase reporter) in DHRS9-transfected PALM cells; type: cell-based; conditions: read-out: inhibition of 3α-diol conversion
T1 construct: expressed in transfected cells; host or cells: PALM cells (PC-3 stably co-transfected with human androgen receptor and pMMTV-neo-Luc)
Description: (§1) The cDNA coding for human DHRS9 was sub-cloned into a pcDNA3.1/zeo expression vector. This was then transfected into a cell line denoted PALM, standing for PC-3 Androgen receptor Luciferase MMTV. This cell line originates from PC-3 cells which have been stably co-transfected by the expression vector coding for the human androgen receptor (pSG5-puro-h androgen receptor (AR)) and by the reporter gene vector coding for luciferase (pMMTV-neo-Luc), the promoter for which has AR response elements.
(§2) The activity of conversion of 3α-diol to DHT by DHRS9 can thus be followed via AR transactivation.

[2] = test system: human androgen receptor (AR); assay: Dose-response of the 3α-diol substrate for AR transactivation in PALM cells (PC-3 Androgen receptor Luciferase MMTV); type: cell-based
Description: as §1, §2

T1 sequence (Q9BPW9 18-319): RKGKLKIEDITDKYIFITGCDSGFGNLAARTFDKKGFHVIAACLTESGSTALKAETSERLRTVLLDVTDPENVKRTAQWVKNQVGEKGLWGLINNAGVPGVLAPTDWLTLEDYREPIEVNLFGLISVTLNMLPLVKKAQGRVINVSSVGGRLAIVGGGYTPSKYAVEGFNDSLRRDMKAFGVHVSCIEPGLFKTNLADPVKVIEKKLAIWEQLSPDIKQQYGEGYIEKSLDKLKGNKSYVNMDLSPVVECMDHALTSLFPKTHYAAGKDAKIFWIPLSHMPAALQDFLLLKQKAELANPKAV

CC(C)=CCCC(C)=CC=O (racemic) [citral, Citral]
inhibition at 100 µM [1]: 86%

C[C@]12CC[C@@H](O)C[C@@H]1CC[C@@H]1[C@@H]2CC[C@]2(C)[C@@H](O)CC[C@@H]12 [3α-diol, 3α-androstanediol]
AC50 ([2]; cells transfected with DHRS9): 0.019 µM | AC50 ([2]; non-transfected cells): 0.189 µM

CC1(C)[C@@H](OC(=O)CCC(=O)O)CC[C@]2(C)[C@H]3C(=O)C=C4[C@@H]5C[C@@](C)(C(=O)O)CC[C@]5(C)CC[C@@]4(C)[C@]3(C)CC[C@@H]12 [carbenoxolone, Carbenoxolone]
inhibition at 100 µM ([1]; concentration of 100 μM, PALM cells transfected with DHRS9): 35%
